Measurements published in ChEMBL document CHEMBL3228021, “Studies on analgesic agents. 1.1a Preparation of 1,2-diphenyl-2-(4-substituted 1-piperazinyl)ethanol derivatives and structure-activity relationships” (J Med Chem, 1979).

Legend:
Mus musculus [1] = experiment: Analgesic activity in sc dosed ddN mouse assessed as inhibition of light radiation-induced thermal pain by D'Amour-Smith method; format: functional
Mus musculus [2] = experiment: Analgesic activity in po dosed ddN mouse assessed as inhibition of phenylquinone-induced writhing; format: functional
Mus musculus [3] = experiment: Toxicity in sc dosed ddN mouse light radiation-induced thermal pain model; format: organism-based; conditions: in vivo
Mus musculus [4] = organism: Mus musculus; experiment: Toxicity in mouse assessed as induction of physical dependence liability by jumping test; format: organism-based; conditions: in vivo
Rattus norvegicus [5] = organism: Rattus norvegicus; experiment: Toxicity in morphine-dependent rat assessed as induction of physical dependence liability by substitution test; format: organism-based; conditions: in vivo
[6] = Acute lethal toxicity in sc dosed rat measured after 1 week; format: organism-based; conditions: in vivo
Rattus norvegicus [7] = experiment: Analgesic activity in po dosed Wistar rat assessed as inhibition of tail pressing-induced mechanical pain by Haffner method; format: functional
Mus musculus [8] = experiment: Analgesic activity in po dosed ddN mouse assessed as inhibition of light radiation-induced thermal pain by D'Amour-Smith method; format: functional
[9] = Acute lethal toxicity in sc dosed mouse measured after 1 week; format: organism-based; conditions: in vivo
[10] = Acute lethal toxicity in po dosed rat measured after 1 week; format: organism-based; conditions: in vivo
[11] = Acute lethal toxicity in po dosed mouse measured after 1 week; format: organism-based; conditions: in vivo
Rhesus monkey = experiment: Toxicity in morphine-dependent monkey assessed as induction of physical dependence liability by single dose suppression test; format: organism-based, Macaca mulatta; conditions: in vivo
[12] = Toxicity in po dosed Wistar rat tail pressing-induced mechanical pain model; format: organism-based; conditions: in vivo
[13] = Mus musculus, ddN, sc, read-out: ED50

| Structure (SMILES) | ED50 (Mus musculus [1]; [13]) [mg/kg] | ED50 (Mus musculus [2]) [mg/kg] | also measured |
| --- | --- | --- | --- |
| COc1ccc(CN2CCN([C@H](c3ccccc3)[C@H](O)c3ccccc3)CC2)cc1 | 40.1 | – | – |
| COc1ccc(CN2CCN([C@@H](c3ccccc3)[C@@H](O)c3ccccc3)CC2)cc1 | 13.5 | – | – |
| COc1ccc(CN2CCN([C@H](c3ccccc3Cl)[C@H](O)c3ccccc3)CC2)cc1.Cl | 58.4 | – | – |
| COc1ccc(CN2CCN([C@@H](c3ccccc3Cl)[C@@H](O)c3ccccc3)CC2)cc1.Cl | > 160 | – | – |
| COc1ccc(CN2CCN(C(c3ccccc3)C(O)c3ccccc3)CC2)cc1 (racemic) | > 160 | 31.1 | ED50 (Mus musculus [3]): 15.2 mg/kg |
| Cc1ccc(CN2CCN(C(c3ccccc3)C(O)c3ccccc3)CC2)cc1.Cl.O (racemic) | > 160 | 43.7 | – |
| Cl.O=[N+]([O-])c1ccc(CN2CCN(C(c3ccccc3)C(O)c3ccccc3)CC2)cc1 (racemic) | > 160 | 40 | – |
| CCOc1ccc(CN2CCN(C(c3ccccc3Cl)C(O)c3ccccc3)CC2)cc1.Cl (racemic) | > 160 | – | – |
| Cl.OC(c1ccccc1)C(c1ccccc1Cl)N1CCN(Cc2ccc(OCc3ccccc3)cc2)CC1 (racemic) | > 160 | – | – |
| COc1ccccc1CN1CCN(C(c2ccccc2)C(O)c2ccccc2)CC1.Cl.O (racemic) | > 160 | – | – |
| COc1ccccc1CN1CCN(C(c2ccccc2Cl)C(O)c2ccccc2)CC1.Cl.O (racemic) | > 160 | – | – |
| COc1cccc(CN2CCN(C(c3ccccc3Cl)C(O)c3ccccc3)CC2)c1.Cl (racemic) | > 160 | – | – |
| COc1cccc(CN2CCN(C(c3ccccc3C)C(O)c3ccccc3)CC2)c1.Cl.O (racemic) | > 160 | – | – |
| COc1ccc(CN2CCN(C(c3ccccc3Cl)C(O)c3ccccc3)CC2)cc1OC.Cl (racemic) | > 160 | – | – |
| Cl.OC(c1ccccc1)C(c1ccccc1Cl)N1CCN(Cc2ccc3c(c2)OCO3)CC1 (racemic) | > 160 | – | – |
| COc1cc(CN2CCN(C(c3ccccc3Cl)C(O)c3ccccc3)CC2)cc(OC)c1OC.Cl.O (racemic) | > 160 | – | – |
| COc1ccc(CN2CCN(C(c3ccccc3)C(O)c3ccccc3OC)CC2)cc1.Cl (racemic) | > 160 | – | – |
| COc1ccc(CN2CCN(C(c3ccccc3)C(O)c3ccc(OC)cc3)CC2)cc1.Cl.O (racemic) | > 160 | – | – |
| COc1ccc(CN2CCN(C(c3ccccc3)C(O)c3ccccc3Cl)CC2)cc1.Cl (racemic) | > 160 | – | – |
| COc1ccc(CN2CCN(C(c3ccccc3)C(O)c3cccc(Cl)c3)CC2)cc1.Cl.O (racemic) | > 160 | – | – |
| COc1ccc(CN2CCN(C(c3ccccc3)C(O)c3ccc(Cl)cc3)CC2)cc1.Cl (racemic) | > 160 | – | – |
| COc1ccc(CN2CCN(C(c3ccccc3)C(O)c3ccccc3C)CC2)cc1.Cl (racemic) | 120 | 100 | – |
| COc1ccc(CN2CCN(C(c3ccccc3)C(O)c3cccc(C)c3)CC2)cc1.Cl (racemic) | 26.4 | 18.5 | – |
| COc1ccc(CN2CCN(C(c3ccccc3)C(O)c3ccc(C)cc3)CC2)cc1.Cl (racemic) | 31.7 | 85.9 | – |
| COc1ccc(CN2CCN(C(c3ccccc3)C(O)c3ccc(O)cc3)CC2)cc1.Cl (racemic) | > 160 | – | – |
| COc1ccc(CN2CCN(C(c3ccccc3OC)C(O)c3ccccc3)CC2)cc1.Cl (racemic) | – | – | Activity (Mus musculus [4]): Non-toxic; Activity (Rattus norvegicus [5]): Non-toxic |

| Structure (SMILES) | ED50 (Mus musculus [1]; [13]) [mg/kg] | ED50 (Mus musculus [2]) [mg/kg] | also measured |
| --- | --- | --- | --- |
| COc1ccc(CN2CCN(C(c3cccc(OC)c3)C(O)c3ccccc3)CC2)cc1.Cl (racemic) | > 160 | – | – |
| COc1ccc(CN2CCN(C(c3ccc(OC)cc3)C(O)c3ccccc3)CC2)cc1.Cl (racemic) | 37.4 | 24.1 | – |
| COc1ccc(CN2CCN(C(c3cccc(Cl)c3)C(O)c3ccccc3)CC2)cc1.Cl (racemic) | 48.1 | 27.2 | – |
| COc1ccc(CN2CCN(C(c3ccc(Cl)cc3)C(O)c3ccccc3)CC2)cc1.Cl (racemic) | 39.7 | 16.4 | – |
| COc1ccc(CN2CCN(C(c3cccc(C)c3)C(O)c3ccccc3)CC2)cc1.Cl (racemic) | 28 | 27.7 | – |
| COc1ccc(CN2CCN(C(c3ccc(C)cc3)C(O)c3ccccc3)CC2)cc1.Cl (racemic) | 14.1 | 16.8 | – |
| COc1ccc(CN2CCN(C(c3ccc([N+](=O)[O-])cc3)C(O)c3ccccc3)CC2)cc1.Cl (racemic) | – | 10.2 | ED50 (Mus musculus [1]): 8.11 mg/kg |
| COc1ccc(CN2CCN(C(c3ccccc3Cl)C(O)c3ccc(C)cc3)CC2)cc1.Cl (racemic) | > 160 | – | – |
| COc1ccc(CN2CCN(C(c3ccc(Cl)cc3)C(O)c3ccc(C)cc3)CC2)cc1.Cl (racemic) | > 160 | – | – |
| COc1ccc(CN2CCN(C(c3ccccc3OC)C(O)c3ccc(C)cc3)CC2)cc1.Cl (racemic) | > 160 | – | – |
| COc1ccc(CN2CCN(C(c3ccccc3)C(OC(C)=O)c3ccccc3)CC2)cc1.Cl (racemic) | 80 | 46.3 | – |
| CCC(=O)OC(c1ccccc1)C(c1ccccc1)N1CCN(Cc2ccc(OC)cc2)CC1.Cl (racemic) | 73.1 | 44.3 | – |
| CCC(=O)OC(c1ccccc1)C(c1ccccc1Cl)N1CCN(Cc2ccc(OC)cc2)CC1.Cl (racemic) | > 160 | 90 | – |
| OC(c1ccccc1)C(c1ccccc1)N1CCN(c2ccccc2Cl)CC1 (racemic) | > 160 | – | – |
| COc1ccccc1N1CCN(C(c2ccccc2)C(O)c2ccccc2)CC1 (racemic) | > 160 | – | – |
| OC(c1ccccc1)C(c1ccccc1)N1CCN(c2ccccn2)CC1 (racemic) | > 160 | – | – |
| Cl.OC(c1ccccc1)C(c1ccccc1)N1CCN(C2CCCCC2)CC1 (racemic) | – | – | ED50 (Mus musculus [3]): > 80 mg/kg |
| Cl.OC(c1ccccc1)C(c1ccccc1)N1CCN(Cc2ccccc2)CC1 (racemic) | > 160 | 20.6 | – |
| OC(c1ccccc1)C(c1ccccc1)N1CCN(CCc2ccccc2)CC1 (racemic) | > 160 | – | – |
| COc1ccc(CN2CCN(C(c3ccccc3Cl)C(O)c3ccccc3)CC2)cc1.Cl (racemic; 38) | – | 20.9 | LD50 at 168 h [6]: 584 mg/kg; ED50 (Rattus norvegicus [7]): 228 mg/kg; ED50 (Mus musculus [8]): 165 mg/kg; LD50 at 168 h [9]: 431 mg/kg; LD50 at 168 h [10]: > 3200 mg/kg; LD50 at 168 h [11]: 509 mg/kg; ED50 (Mus musculus [1]): 79 mg/kg; Activity (Mus musculus [4]): Non-toxic; Activity (Rattus norvegicus [5]): Non-toxic; Activity (Rhesus monkey): Non-toxic |
| COc1ccc(CN2CCN(C(c3ccccc3C)C(O)c3ccccc3)CC2)cc1.Cl (racemic; 41) | – | – | ED50 (Mus musculus [1]): 65.2 mg/kg; Activity (Mus musculus [4]): Non-toxic; Activity (Rattus norvegicus [5]): Non-toxic |
| COc1ccc(CN2CCN(C(c3ccccc3Cl)C(O)c3ccccc3)CC2)cc1.Cl (racemic; 53) | – | – | ED50 (Mus musculus [1]): >160 mg/kg |
| COc1ccc(CN2CCN(C(c3ccccc3C)C(O)c3ccccc3)CC2)cc1.Cl (racemic; 54) | – | – | ED50 (Mus musculus [1]): >160 mg/kg |
| COc1ccc(CN2CCN(C(c3ccc([N+](=O)[O-])cc3)C(O)c3ccccc3)CC2)cc1.Cl (stereo in doubt; 55) | – | – | ED50 (Mus musculus [1]): >160 mg/kg |
| Cc1c(N(C)C)c(=O)n(-c2ccccc2)n1C [AMINOPYRINE] | – | – | ED50 (Mus musculus [3]): > 640 mg/kg; LD50 at 168 h [6]: 511 mg/kg; LD50 at 168 h [9]: 385 mg/kg; LD50 at 168 h [10]: > 2000 mg/kg; LD50 at 168 h [11]: 523 mg/kg; LD50 [12]: > 2560 mg/kg |
| COc1ccc2c3c1O[C@H]1[C@@H](O)C=C[C@H]4[C@@H](C2)N(C)CC[C@@]341.COc1ccc2c3c1O[C@H]1[C@@H](O)C=C[C@H]4[C@@H](C2)N(C)CC[C@@]341.O.O=P(O)(O)O.O=P(O)(O)O [CODEINE PHOSPHATE] | 28.1 | 8.21 | LD50 at 168 h [6]: 365 mg/kg; ED50 (Rattus norvegicus [7]): 196 mg/kg; ED50 (Mus musculus [8]): 98.4 mg/kg; LD50 at 168 h [9]: 271 mg/kg; LD50 at 168 h [10]: 1180 mg/kg; LD50 at 168 h [11]: 574 mg/kg |
